Data taken from ChEMBL document CHEMBL5291721, “A preclinical secondary pharmacology resource illuminates target-adverse drug reaction associations of marketed drugs” (Nat Commun, 2023).

Tests used:
[1] = target: T1, B1 bradykinin receptor (Homo sapiens, UniProt P46663)
T1 sequence (P46663 whole entry): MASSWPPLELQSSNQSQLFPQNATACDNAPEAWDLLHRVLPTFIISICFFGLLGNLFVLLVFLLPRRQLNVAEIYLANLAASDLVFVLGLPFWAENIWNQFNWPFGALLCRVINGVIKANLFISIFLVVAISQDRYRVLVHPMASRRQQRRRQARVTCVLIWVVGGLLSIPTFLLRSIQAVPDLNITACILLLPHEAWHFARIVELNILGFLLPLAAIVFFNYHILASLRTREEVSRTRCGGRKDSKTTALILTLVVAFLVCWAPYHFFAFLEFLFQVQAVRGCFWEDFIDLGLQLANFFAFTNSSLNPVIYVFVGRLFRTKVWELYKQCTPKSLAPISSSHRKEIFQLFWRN

[2] = target: Glucagon receptor (Homo sapiens, UniProt P47871)
[3] = target: T2, Gastric inhibitory polypeptide receptor (Homo sapiens, UniProt P48546)
T2 sequence (P48546 whole entry): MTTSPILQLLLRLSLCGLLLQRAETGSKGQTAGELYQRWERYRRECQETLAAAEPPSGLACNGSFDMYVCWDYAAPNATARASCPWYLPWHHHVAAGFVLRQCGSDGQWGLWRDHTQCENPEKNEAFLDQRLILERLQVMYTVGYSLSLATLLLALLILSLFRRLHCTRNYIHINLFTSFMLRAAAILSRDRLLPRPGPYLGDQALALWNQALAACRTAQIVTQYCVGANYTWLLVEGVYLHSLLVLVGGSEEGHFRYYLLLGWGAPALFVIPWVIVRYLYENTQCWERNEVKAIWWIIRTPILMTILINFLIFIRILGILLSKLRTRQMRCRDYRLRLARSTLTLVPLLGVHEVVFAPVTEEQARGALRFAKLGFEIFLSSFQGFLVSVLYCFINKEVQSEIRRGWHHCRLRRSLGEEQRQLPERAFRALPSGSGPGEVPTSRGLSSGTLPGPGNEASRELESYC

[4] = target: Histamine H2 receptor (Homo sapiens, UniProt P25021)
[5] = target: T3, Alpha-2A adrenergic receptor (Homo sapiens, UniProt P08913)
T3 sequence (P08913 whole entry): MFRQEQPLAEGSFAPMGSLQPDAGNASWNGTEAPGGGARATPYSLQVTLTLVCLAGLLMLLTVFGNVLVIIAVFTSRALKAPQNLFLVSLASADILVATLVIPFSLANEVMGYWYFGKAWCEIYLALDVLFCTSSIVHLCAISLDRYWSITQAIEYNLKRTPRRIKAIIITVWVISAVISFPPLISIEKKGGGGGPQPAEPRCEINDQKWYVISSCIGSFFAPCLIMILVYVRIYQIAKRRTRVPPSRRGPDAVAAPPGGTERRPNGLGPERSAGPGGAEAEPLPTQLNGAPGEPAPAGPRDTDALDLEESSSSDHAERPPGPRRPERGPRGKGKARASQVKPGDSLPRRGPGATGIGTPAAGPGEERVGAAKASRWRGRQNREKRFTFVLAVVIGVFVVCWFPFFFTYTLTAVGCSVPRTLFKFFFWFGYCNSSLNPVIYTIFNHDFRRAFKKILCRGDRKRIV

[6] = target: T4, Alpha-1A adrenergic receptor (Homo sapiens, UniProt P35348); type: functional, cell-based
T4 sequence (P35348 whole entry): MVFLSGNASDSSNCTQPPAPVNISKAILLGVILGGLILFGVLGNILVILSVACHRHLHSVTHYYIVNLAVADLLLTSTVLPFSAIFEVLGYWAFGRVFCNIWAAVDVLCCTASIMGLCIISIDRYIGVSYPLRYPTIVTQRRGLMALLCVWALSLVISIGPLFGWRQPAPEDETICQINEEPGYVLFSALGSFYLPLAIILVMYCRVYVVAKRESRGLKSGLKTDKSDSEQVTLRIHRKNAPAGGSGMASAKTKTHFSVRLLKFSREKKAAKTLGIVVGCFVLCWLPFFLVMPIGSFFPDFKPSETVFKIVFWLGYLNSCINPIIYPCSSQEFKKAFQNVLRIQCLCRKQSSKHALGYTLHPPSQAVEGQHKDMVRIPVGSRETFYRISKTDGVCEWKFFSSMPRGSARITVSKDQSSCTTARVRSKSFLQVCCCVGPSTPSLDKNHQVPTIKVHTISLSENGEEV

[7] = target: Prothrombin (Homo sapiens, UniProt P00734); type: functional
[8] = target: Vascular endothelial growth factor receptor 2 (Homo sapiens, UniProt P35968); type: functional
[9] = target: T5, Amine oxidase [flavin-containing] A (Homo sapiens, UniProt P21397); type: functional
T5 sequence (P21397 whole entry): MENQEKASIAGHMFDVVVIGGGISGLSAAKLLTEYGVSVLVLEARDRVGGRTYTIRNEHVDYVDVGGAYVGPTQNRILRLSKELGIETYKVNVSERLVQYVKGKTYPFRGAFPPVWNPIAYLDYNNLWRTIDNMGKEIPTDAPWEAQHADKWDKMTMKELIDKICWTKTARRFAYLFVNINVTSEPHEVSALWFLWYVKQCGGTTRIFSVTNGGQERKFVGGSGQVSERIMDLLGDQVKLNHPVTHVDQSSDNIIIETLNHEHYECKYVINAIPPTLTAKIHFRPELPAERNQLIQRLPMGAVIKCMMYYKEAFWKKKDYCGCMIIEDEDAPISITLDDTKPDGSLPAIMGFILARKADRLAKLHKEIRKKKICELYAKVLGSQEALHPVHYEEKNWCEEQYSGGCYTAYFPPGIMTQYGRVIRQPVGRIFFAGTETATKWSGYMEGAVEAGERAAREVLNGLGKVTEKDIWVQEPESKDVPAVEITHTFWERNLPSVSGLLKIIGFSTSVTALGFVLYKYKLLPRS

[10] = target: cGMP-inhibited 3',5'-cyclic phosphodiesterase 3A (Homo sapiens, UniProt Q14432); type: functional
[11] = target: T6, Prostaglandin G/H synthase 1 (Homo sapiens, UniProt P23219); type: functional
[12] = target: T6, Prostaglandin G/H synthase 1; type: functional; remark: listed apart in the source
[13] = target: Sodium-dependent dopamine transporter (Homo sapiens, UniProt Q01959)
Also: assay procedure not described here.

T6 sequence (P23219 whole entry): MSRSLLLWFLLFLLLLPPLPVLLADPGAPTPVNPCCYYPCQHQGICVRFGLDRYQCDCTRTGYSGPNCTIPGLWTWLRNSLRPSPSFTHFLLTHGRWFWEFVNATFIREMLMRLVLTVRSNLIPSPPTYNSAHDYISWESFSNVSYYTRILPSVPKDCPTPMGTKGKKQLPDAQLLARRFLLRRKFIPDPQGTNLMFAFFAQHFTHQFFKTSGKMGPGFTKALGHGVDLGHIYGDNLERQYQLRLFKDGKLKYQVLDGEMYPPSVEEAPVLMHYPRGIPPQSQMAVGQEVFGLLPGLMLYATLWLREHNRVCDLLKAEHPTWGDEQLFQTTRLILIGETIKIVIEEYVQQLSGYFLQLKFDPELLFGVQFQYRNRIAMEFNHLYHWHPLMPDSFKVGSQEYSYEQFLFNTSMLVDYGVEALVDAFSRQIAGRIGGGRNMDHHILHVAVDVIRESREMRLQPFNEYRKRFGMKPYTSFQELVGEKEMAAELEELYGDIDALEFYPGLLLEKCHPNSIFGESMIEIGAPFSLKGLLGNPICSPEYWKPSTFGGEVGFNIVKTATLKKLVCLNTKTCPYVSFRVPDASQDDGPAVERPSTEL
Sequence of Sodium-dependent dopamine transporter (Q01959 whole entry): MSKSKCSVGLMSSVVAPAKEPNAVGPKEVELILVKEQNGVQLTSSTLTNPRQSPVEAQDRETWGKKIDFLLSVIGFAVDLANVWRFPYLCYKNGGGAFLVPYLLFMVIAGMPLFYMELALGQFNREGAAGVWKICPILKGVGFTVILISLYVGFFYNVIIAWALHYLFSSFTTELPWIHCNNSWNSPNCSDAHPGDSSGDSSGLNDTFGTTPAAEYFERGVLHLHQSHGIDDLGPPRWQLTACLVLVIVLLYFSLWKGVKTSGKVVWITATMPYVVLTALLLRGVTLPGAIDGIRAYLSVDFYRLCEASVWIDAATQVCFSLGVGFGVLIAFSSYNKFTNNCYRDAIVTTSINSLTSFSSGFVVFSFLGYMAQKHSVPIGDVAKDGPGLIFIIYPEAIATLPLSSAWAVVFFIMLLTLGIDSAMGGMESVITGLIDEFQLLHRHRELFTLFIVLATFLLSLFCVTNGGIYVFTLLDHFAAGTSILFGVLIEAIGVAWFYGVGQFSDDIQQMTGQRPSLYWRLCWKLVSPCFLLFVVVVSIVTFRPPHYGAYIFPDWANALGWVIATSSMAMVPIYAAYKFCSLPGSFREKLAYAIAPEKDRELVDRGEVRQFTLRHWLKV
Sequence of Histamine H2 receptor (P25021 whole entry): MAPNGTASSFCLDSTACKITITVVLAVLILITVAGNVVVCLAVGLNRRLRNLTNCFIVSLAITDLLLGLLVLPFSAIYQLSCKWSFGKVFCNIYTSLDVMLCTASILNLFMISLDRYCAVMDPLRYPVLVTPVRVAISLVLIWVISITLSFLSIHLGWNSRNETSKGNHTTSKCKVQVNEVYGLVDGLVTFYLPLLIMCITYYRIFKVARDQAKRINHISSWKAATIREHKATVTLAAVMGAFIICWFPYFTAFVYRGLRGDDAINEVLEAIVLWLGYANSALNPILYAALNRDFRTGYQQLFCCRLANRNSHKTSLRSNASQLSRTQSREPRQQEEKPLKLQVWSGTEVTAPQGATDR
Sequence of Glucagon receptor (P47871 whole entry): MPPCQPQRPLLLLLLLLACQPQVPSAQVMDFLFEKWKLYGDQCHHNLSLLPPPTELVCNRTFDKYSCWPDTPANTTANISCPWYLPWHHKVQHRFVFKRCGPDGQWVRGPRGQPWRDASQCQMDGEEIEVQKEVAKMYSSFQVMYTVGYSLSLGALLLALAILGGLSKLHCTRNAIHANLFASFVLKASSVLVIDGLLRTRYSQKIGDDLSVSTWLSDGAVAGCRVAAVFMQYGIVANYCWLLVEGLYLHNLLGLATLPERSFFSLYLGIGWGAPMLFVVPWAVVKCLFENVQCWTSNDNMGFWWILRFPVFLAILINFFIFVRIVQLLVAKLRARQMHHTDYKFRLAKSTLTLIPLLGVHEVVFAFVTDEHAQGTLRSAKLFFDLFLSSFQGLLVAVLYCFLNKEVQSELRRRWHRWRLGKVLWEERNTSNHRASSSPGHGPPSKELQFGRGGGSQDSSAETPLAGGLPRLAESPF
Sequence of cGMP-inhibited 3',5'-cyclic phosphodiesterase 3A (Q14432 whole entry): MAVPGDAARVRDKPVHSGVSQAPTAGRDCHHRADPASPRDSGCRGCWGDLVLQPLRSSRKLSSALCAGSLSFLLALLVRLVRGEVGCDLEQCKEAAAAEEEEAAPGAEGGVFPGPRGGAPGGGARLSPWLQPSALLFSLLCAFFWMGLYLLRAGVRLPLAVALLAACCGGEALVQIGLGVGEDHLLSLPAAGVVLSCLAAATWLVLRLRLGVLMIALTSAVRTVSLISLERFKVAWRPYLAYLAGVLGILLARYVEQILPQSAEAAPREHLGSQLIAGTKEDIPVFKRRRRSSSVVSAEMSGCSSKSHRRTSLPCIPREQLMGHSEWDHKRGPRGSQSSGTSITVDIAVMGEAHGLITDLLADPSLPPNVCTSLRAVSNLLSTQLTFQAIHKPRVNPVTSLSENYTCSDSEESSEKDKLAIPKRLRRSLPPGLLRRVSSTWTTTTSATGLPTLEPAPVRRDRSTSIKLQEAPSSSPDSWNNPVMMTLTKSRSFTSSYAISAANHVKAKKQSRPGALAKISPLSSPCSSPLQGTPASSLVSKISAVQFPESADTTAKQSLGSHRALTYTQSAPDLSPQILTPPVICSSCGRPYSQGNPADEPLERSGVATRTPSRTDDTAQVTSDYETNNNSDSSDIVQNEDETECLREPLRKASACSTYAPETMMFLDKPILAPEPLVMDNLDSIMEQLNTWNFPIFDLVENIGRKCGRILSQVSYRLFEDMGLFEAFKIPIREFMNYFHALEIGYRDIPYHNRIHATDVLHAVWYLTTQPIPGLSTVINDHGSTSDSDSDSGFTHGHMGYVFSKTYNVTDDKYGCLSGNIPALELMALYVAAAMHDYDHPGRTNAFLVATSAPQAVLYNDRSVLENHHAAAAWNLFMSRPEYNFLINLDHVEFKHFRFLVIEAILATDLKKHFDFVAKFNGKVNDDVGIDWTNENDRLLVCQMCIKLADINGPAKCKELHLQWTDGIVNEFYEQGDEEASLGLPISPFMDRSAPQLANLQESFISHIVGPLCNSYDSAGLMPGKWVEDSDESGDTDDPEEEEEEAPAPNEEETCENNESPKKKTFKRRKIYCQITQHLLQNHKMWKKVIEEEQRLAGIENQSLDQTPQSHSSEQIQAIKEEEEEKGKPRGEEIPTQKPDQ
Sequence of Vascular endothelial growth factor receptor 2 (P35968 whole entry): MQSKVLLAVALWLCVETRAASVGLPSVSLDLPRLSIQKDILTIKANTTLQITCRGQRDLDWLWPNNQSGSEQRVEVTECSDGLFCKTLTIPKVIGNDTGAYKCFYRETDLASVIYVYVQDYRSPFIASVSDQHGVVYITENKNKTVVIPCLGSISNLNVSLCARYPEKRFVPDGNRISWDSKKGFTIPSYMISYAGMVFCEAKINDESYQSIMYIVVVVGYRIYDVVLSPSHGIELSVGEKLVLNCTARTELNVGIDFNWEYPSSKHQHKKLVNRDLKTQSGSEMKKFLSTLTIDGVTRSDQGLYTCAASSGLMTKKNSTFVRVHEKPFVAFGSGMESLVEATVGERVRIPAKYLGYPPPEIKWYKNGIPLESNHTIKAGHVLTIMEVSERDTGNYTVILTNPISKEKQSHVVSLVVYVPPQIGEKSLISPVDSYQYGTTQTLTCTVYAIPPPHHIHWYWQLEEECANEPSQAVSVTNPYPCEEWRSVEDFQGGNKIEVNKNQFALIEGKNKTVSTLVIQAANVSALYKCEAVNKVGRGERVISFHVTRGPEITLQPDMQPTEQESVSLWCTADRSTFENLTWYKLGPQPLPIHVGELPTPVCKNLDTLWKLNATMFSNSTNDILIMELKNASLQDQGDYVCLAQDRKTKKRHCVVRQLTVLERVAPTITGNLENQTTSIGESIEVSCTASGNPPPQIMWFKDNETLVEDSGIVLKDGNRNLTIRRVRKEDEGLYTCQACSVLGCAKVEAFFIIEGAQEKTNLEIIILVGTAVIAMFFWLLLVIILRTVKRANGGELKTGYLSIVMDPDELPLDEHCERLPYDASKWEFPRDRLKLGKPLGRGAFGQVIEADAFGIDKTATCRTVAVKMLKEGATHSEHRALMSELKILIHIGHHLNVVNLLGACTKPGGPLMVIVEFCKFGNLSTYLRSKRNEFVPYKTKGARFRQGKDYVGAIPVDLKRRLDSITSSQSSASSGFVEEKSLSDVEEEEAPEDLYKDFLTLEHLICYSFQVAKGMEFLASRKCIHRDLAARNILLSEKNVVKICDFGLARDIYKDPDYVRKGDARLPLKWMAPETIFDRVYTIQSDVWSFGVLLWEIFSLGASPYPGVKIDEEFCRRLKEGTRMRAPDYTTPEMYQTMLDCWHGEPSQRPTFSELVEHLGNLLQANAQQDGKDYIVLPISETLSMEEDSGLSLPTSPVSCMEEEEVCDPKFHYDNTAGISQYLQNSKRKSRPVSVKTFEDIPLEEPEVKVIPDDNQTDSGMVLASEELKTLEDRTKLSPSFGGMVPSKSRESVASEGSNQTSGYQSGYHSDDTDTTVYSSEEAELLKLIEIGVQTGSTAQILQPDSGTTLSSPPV

Row | Compound | AC50 [1] | AC50 [2] | AC50 [3] | AC50 [4] | AC50 [5] | AC50 [6] | AC50 [7] | AC50 [8] | AC50 [9] | AC50 [10] | AC50 [11] | AC50 [12] | AC50 [13]
1 | Cn1c(=O)cc(N2CCC[C@@H](N)C2)n(Cc2ccccc2C#N)c1=O [ALOGLIPTIN] | > 30 µM | > 30 µM | > 30 µM | > 10 µM | > 10 µM |  |  |  |  |  |  |  | 
2 | Nc1c2ccccc2nc2ccccc12 [AMINACRINE] |  |  |  |  |  | 9.77 µM | > 30 µM | > 30 µM | > 30 µM | > 30 µM | > 30 µM | > 30 µM | > 30 µM
3 | CC(=O)OCC(=O)[C@@]1(O)[C@H](C)C[C@H]2[C@@H]3CCC4=CC(=O)C=C[C@]4(C)[C@@]3(F)[C@@H](O)C[C@@]21C [DEXAMETHASONE ACETATE] | > 30 µM | > 30 µM | > 30 µM |  |  |  |  |  |  |  |  |  | 
4 | Cn1cnc2c(F)c(Nc3ccc(Br)cc3Cl)c(C(=O)NOCCO)cc21 [SELUMETINIB] |  |  |  | > 10 µM |  |  |  |  |  |  |  |  | 
5 | Cc1ncc2n1-c1ccc(Cl)cc1C(c1ccccc1F)=NC2 [MIDAZOLAM] |  |  |  |  | > 10 µM |  |  |  |  |  |  |  | 
6 | O=C(O)CCCCC1CCSS1 (stereo not drawn) [LIPOIC ACID, ALPHA] |  |  |  |  |  | > 30 µM | > 30 µM | > 30 µM | > 30 µM | > 30 µM | > 30 µM | > 30 µM | > 30 µM
